# Values quoted from earlier work in PMC6640857 (Tetrahedron, 2019).
# Settings: relative to vancomycin; cited from earlier work
substance,measurement,value
chlorobiphenylmethyl (CBP-)vancomycin [compound 2],enhancement of antimicrobial potency by the CBP modification,≤ 100 fold
